In the NIST ThermoML archive (doi:10.1007/s10765-005-5571-9):
Numbers after ± are expanded uncertainties.

Experiments:
[1] = 298.15 K; 101.3 kPa; Liquid
[2] = xn = mol fraction of the nth substance listed; settings: 298 K, 101.3 kPa, Liquid

**Q.** Which mass density [1] does the source give for `CC(=O)OCCC(C)C` [3-methylbutyl ethanoate] here?
**A.** 867.356 ± 0.36 kg/m3

**Q.** Which results are given for `CC(=O)OCCC(C)C` [3-methylbutyl ethanoate] + C=C(C)C(=O)OC?
**A.** mass density ([2]; x1 = 0.0263): 934.984 ± 0.16 kg/m3; mass density ([2]; x1 = 0.0515): 932.526 ± 0.17 kg/m3; mass density ([2]; x1 = 0.1007): 927.871 ± 0.18 kg/m3; mass density ([2]; x1 = 0.1599): 922.52 ± 0.19 kg/m3; mass density ([2]; x1 = 0.2002): 919.025 ± 0.2 kg/m3; mass density ([2]; x1 = 0.25): 914.86 ± 0.21 kg/m3; mass density ([2]; x1 = 0.3053): 910.408 ± 0.22 kg/m3; mass density ([2]; x1 = 0.3502): 906.93 ± 0.23 kg/m3; mass density ([2]; x1 = 0.4005): 903.17 ± 0.24 kg/m3; mass density ([2]; x1 = 0.4504): 899.578 ± 0.25 kg/m3; mass density ([2]; x1 = 0.5005): 896.102 ± 0.26 kg/m3; mass density ([2]; x1 = 0.5502): 892.767 ± 0.27 kg/m3; mass density ([2]; x1 = 0.6005): 889.513 ± 0.28 kg/m3; mass density ([2]; x1 = 0.6538): 886.188 ± 0.29 kg/m3; mass density ([2]; x1 = 0.7003): 883.384 ± 0.3 kg/m3; mass density ([2]; x1 = 0.7508): 880.451 ± 0.31 kg/m3; mass density ([2]; x1 = 0.8003): 877.66 ± 0.32 kg/m3; mass density ([2]; x1 = 0.85): 874.956 ± 0.33 kg/m3; mass density ([2]; x1 = 0.9002): 872.311 ± 0.34 kg/m3; mass density ([2]; x1 = 0.9499): 869.798 ± 0.35 kg/m3; mass density ([2]; x1 = 0.9751): 868.558 ± 0.36 kg/m3; mass density ([2]; x1 = 1): 867.356 ± 0.36 kg/m3

**Q.** Which mass density ([2]; x1 = 1) does the source give for `CC(=O)OCCC(C)C` [3-methylbutyl ethanoate] + C=CC(=O)OCC here?
**A.** 867.356 ± 0.36 kg/m3

**Q.** For `CC(=O)OCCC(C)C` [3-methylbutyl ethanoate] + C=CC(=O)OCCCC, which mass density ([2]; x1 = 1) is on record?
**A.** 867.356 ± 0.36 kg/m3

**Q.** For `CC(=O)OCCC(C)C` [3-methylbutyl ethanoate] + C=Cc1ccccc1, which mass density ([2]; x1 = 0.0293) is on record?
**A.** 900.833 ± 0.19 kg/m3

**Q.** What about the mass density ([2]; x1 = 0.0529) of the same compound?
**A.** 899.946 ± 0.2 kg/m3

**Q.** And the mass density ([2]; x1 = 0.0997)?
**A.** 898.18 ± 0.2 kg/m3

**Q.** And the mass density ([2]; x1 = 0.1502)?
**A.** 896.274 ± 0.21 kg/m3

**Q.** And the mass density ([2]; x1 = 0.2)?
**A.** 894.422 ± 0.21 kg/m3

**Q.** What about the mass density ([2]; x1 = 0.2502) of the same compound?
**A.** 892.59 ± 0.22 kg/m3

**Q.** What about the mass density ([2]; x1 = 0.3064) of the same compound?
**A.** 890.541 ± 0.23 kg/m3

**Q.** What about the mass density ([2]; x1 = 0.3509) of the same compound?
**A.** 888.929 ± 0.24 kg/m3

**Q.** And the mass density ([2]; x1 = 0.4042)?
**A.** 887.046 ± 0.25 kg/m3

**Q.** What about the mass density ([2]; x1 = 0.4508) of the same compound?
**A.** 885.398 ± 0.26 kg/m3

**Q.** And the mass density ([2]; x1 = 0.5011)?
**A.** 883.646 ± 0.27 kg/m3

**Q.** What about the mass density ([2]; x1 = 0.5571) of the same compound?
**A.** 881.719 ± 0.28 kg/m3

**Q.** What about the mass density ([2]; x1 = 0.6002) of the same compound?
**A.** 880.257 ± 0.28 kg/m3

**Q.** What about the mass density ([2]; x1 = 0.6507) of the same compound?
**A.** 878.546 ± 0.29 kg/m3

**Q.** And the mass density ([2]; x1 = 0.7003)?
**A.** 876.895 ± 0.3 kg/m3

**Q.** What about the mass density ([2]; x1 = 0.7514) of the same compound?
**A.** 875.198 ± 0.31 kg/m3

**Q.** And the mass density ([2]; x1 = 0.7999)?
**A.** 873.614 ± 0.32 kg/m3

**Q.** And the mass density ([2]; x1 = 0.8507)?
**A.** 871.983 ± 0.33 kg/m3

**Q.** What about the mass density ([2]; x1 = 0.9005) of the same compound?
**A.** 870.41 ± 0.34 kg/m3

**Q.** And the mass density ([2]; x1 = 0.9499)?
**A.** 868.881 ± 0.35 kg/m3

**Q.** And the mass density ([2]; x1 = 0.9747)?
**A.** 868.119 ± 0.36 kg/m3

**Q.** And the mass density ([2]; x1 = 1)?
**A.** 867.356 ± 0.36 kg/m3

**Q.** For `C=CC(=O)OCCCC` [butyl 2-propenoate], which mass density [1] is on record?
**A.** 893.947 ± 0.2 kg/m3

**Q.** What does the source list for `C=CC(=O)OCCCC` [butyl 2-propenoate] + CC(=O)OCCC(C)C?
**A.** mass density ([2]; x2 = 0): 893.947 ± 0.2 kg/m3; mass density ([2]; x2 = 0.0257): 893.222 ± 0.2 kg/m3; mass density ([2]; x2 = 0.0496): 892.552 ± 0.2 kg/m3; mass density ([2]; x2 = 0.1035): 891.059 ± 0.21 kg/m3; mass density ([2]; x2 = 0.1504): 889.769 ± 0.21 kg/m3; mass density ([2]; x2 = 0.2): 888.407 ± 0.22 kg/m3; mass density ([2]; x2 = 0.2504): 887.04 ± 0.23 kg/m3; mass density ([2]; x2 = 0.2999): 885.689 ± 0.23 kg/m3; mass density ([2]; x2 = 0.3512): 884.304 ± 0.24 kg/m3; mass density ([2]; x2 = 0.4001): 882.985 ± 0.25 kg/m3; mass density ([2]; x2 = 0.4521): 881.596 ± 0.26 kg/m3; mass density ([2]; x2 = 0.5): 880.304 ± 0.27 kg/m3; mass density ([2]; x2 = 0.55): 878.984 ± 0.28 kg/m3; mass density ([2]; x2 = 0.6): 877.664 ± 0.28 kg/m3; mass density ([2]; x2 = 0.65): 876.356 ± 0.29 kg/m3; mass density ([2]; x2 = 0.7003): 875.048 ± 0.3 kg/m3; mass density ([2]; x2 = 0.7502): 873.751 ± 0.31 kg/m3; mass density ([2]; x2 = 0.7998): 872.467 ± 0.32 kg/m3; mass density ([2]; x2 = 0.85): 871.176 ± 0.33 kg/m3; mass density ([2]; x2 = 0.9): 869.889 ± 0.34 kg/m3; mass density ([2]; x2 = 0.95): 868.618 ± 0.35 kg/m3; mass density ([2]; x2 = 0.9752): 867.98 ± 0.36 kg/m3

**Q.** With `C=CC(=O)OCC` [ethyl propenoate] as the compound, how does the mass density [1] read?
**A.** 916.124 ± 0.2 kg/m3

**Q.** For `C=CC(=O)OCC` [ethyl propenoate] + CC(=O)OCCC(C)C, which mass density ([2]; x2 = 0) is on record?
**A.** 916.124 ± 0.2 kg/m3

**Q.** What about the mass density ([2]; x2 = 0.031) of the same compound?
**A.** 913.999 ± 0.2 kg/m3

**Q.** And the mass density ([2]; x2 = 0.0501)?
**A.** 912.721 ± 0.2 kg/m3

**Q.** And the mass density ([2]; x2 = 0.0999)?
**A.** 909.503 ± 0.21 kg/m3

**Q.** And the mass density ([2]; x2 = 0.1505)?
**A.** 906.326 ± 0.22 kg/m3

**Q.** What about the mass density ([2]; x2 = 0.2012) of the same compound?
**A.** 903.286 ± 0.23 kg/m3

**Q.** What about the mass density ([2]; x2 = 0.2501) of the same compound?
**A.** 900.442 ± 0.23 kg/m3

**Q.** What about the mass density ([2]; x2 = 0.301) of the same compound?
**A.** 897.604 ± 0.24 kg/m3

**Q.** And the mass density ([2]; x2 = 0.3512)?
**A.** 894.897 ± 0.25 kg/m3

**Q.** And the mass density ([2]; x2 = 0.402)?
**A.** 892.257 ± 0.26 kg/m3

**Q.** And the mass density ([2]; x2 = 0.4505)?
**A.** 889.84 ± 0.27 kg/m3

**Q.** What about the mass density ([2]; x2 = 0.501) of the same compound?
**A.** 887.406 ± 0.28 kg/m3

**Q.** What about the mass density ([2]; x2 = 0.5502) of the same compound?
**A.** 885.117 ± 0.29 kg/m3

**Q.** And the mass density ([2]; x2 = 0.6002)?
**A.** 882.87 ± 0.29 kg/m3

**Q.** What about the mass density ([2]; x2 = 0.6518) of the same compound?
**A.** 880.634 ± 0.3 kg/m3

**Q.** What about the mass density ([2]; x2 = 0.7001) of the same compound?
**A.** 878.602 ± 0.31 kg/m3

**Q.** And the mass density ([2]; x2 = 0.7499)?
**A.** 876.582 ± 0.32 kg/m3

**Q.** And the mass density ([2]; x2 = 0.8008)?
**A.** 874.573 ± 0.33 kg/m3

**Q.** What about the mass density ([2]; x2 = 0.8514) of the same compound?
**A.** 872.644 ± 0.34 kg/m3

**Q.** What about the mass density ([2]; x2 = 0.9001) of the same compound?
**A.** 870.846 ± 0.34 kg/m3

**Q.** And the mass density ([2]; x2 = 0.9503)?
**A.** 869.055 ± 0.35 kg/m3

**Q.** What about the mass density ([2]; x2 = 0.9752) of the same compound?
**A.** 868.197 ± 0.36 kg/m3

**Q.** Which mass density [1] does the source give for `C=C(C)C(=O)OC` [methyl methacrylate] here?
**A.** 937.628 ± 0.16 kg/m3

**Q.** For `C=C(C)C(=O)OC` [methyl methacrylate] + CC(=O)OCCC(C)C, which mass density ([2]; x2 = 0) is on record?
**A.** 937.628 ± 0.16 kg/m3

**Q.** Which mass density [1] does the source give for `C=Cc1ccccc1` [styrene] here?
**A.** 901.941 ± 0.19 kg/m3

**Q.** With `C=Cc1ccccc1` [styrene] + CC(=O)OCCC(C)C as the compound, how does the mass density ([2]; x2 = 0) read?
**A.** 901.941 ± 0.19 kg/m3
